Laboratory results: patent publication US6627652B1, “Method of treatment with compounds having selective agonist-like activity on RXR retinoid receptors” (Allergan, Inc., priority 1993, dated 2003)
pEC50: −log10 of the molar value. Values after ≈ are worked out from the molar mass of the structure shown. “Also recorded” adds a separate entry of the source. Read-outs that look alike come from different tables or passages of the source.

Columns and labels:
[1] = pharmacokinetic study, concentration in maternal plasma and embryo of mice; format: in vivo; conditions: oral intubation, single dose of 10 mg/kg, FIG. 8
Protocol: FIG. 8 is a graph showing the concentration of compound AGN 191701 (Compound 1) in nanograms per ml, or nanograms per gram as indicated on the chart, in the plasma and embryo of mice at various times after oral intubation of a single dose of 10 mg/kg of the compound.

chimeric RXRα receptor = target: T1, chimeric RXRα receptor (Homo sapiens, UniProt P19793); test: Cationic Liposome Mediated Transfection Assay (ERE-CAT reporter in HeLa cells), RXRα; format: cell-based; conditions: concentration giving 50% of maximum CAT activity of reference AGN 191440
T1 construct: expressed in transfected cells; host or cells: HeLa cells
T1 sequence (P19793 227-458 limits assumed): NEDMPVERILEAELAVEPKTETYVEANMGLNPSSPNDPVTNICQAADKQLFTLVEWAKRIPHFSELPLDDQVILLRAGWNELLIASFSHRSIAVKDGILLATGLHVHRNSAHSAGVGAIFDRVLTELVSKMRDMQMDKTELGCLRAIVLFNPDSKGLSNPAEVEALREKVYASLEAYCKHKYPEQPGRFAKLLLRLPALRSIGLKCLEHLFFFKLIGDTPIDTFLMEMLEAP

chimeric RARγ receptor = target: T2, chimeric RARγ receptor (Homo sapiens, UniProt P13631); test: Cationic Liposome Mediated Transfection Assay (ERE-CAT reporter in HeLa cells), RARγ
T2 sequence (P13631 185-419 limits assumed): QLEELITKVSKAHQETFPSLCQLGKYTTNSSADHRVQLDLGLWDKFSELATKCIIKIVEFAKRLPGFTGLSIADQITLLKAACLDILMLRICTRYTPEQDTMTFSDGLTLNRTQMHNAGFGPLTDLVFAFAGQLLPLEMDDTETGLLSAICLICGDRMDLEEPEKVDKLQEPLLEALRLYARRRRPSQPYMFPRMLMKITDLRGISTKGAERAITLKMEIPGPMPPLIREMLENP

human sebocyte cultures = test: 3H-thymidine incorporation assay in human sebocyte cultures; format: cell-based; conditions: FIG. 3, 8 days of treatment
Protocol: An assay involving human sebocyte cultures measures the inhibition of ^3H-thymidine into cells, and thus measures inhibition of DNA synthesis and thus an anti-proliferative effect on sebocyte (i.e. a sebostatic effect). This assay is also considered a specific assay for effectiveness of a compound as a potential anti-acne drug. The test is conducted as follows. Face-lift or forehead reduction skins from cosmetic surgeries were used as sources of human sebaceous gland cells (sebocytes). Isolated sebocytes were plated in type 1 collagen coated-dishes in DMEM/F12 (1:1) medium supplemented with 8% fetal bovine serum, 2% human serum, 10 ng/ml epidermal growth factor, 1 nM cholera toxin, 1 μM hydrocortisone, and penicillin/streptomycin/amphotericin B. Secondary cultures were prepared by plating Dispase dissociated cells in collagen coated 24-well plates. […] DNA from the cells were extracted by thichoroacetic acid and perchloric acid, and assayed for radioactivity by scintillation counting and for content of DNA by the diphenylamine colorimetric method. The results were expressed as CPM/μg DNA, or as per cent of vehicle control which incorporated about 1,000-1,500 cpm/μg DNA.

[2] = tested on: limb bud mesenchymal cells; test: inhibition of chondrogenesis in high-density spot cultures of limb bud mesenchymal cells; format: cell-based, mouse; conditions: for IC50: Mus musculus
Protocol: An in vitro bioassay which measures inhibition of chondrogenesis (bone formation) in chick embryo cells is considered a classic measure of teratogenecity. The assay is conducted as follows: High-density “spot” cultures of limb bud mesenchymal cells were used to compare the ability of various concentrations of test drugs to suppress chondrogenic differentiation as a bioassay. Forelimb buds of mouse embryos on day 12 of gestation (54±2 somites) were dissociated in a trypsin-EDTA solution, and the resultant single-cell suspension was plated as 20-μl spots (200,000 cells/spot) on plastic culture dishes. Retinoid concentrations ranging from 0.3 ng/ml to 3 μg/ml (1 nM-10 μM) were added to the culture medium (Eagle's MEM+10% fetal bovine serum, GIBCO) 24 hours after initial plating. Control cultures received only the vehicle (ethanol, concentration≦1% by vol); Retinoic acid was used as a positive control in another set of cultures. The cultures were terminated 96 hours after plating, at which time the medium was removed and the cells were fixed for 1 hour in 10% formalin containing 0.5% cetylpyridinium chloride. The cultures were rinsed in acetic acid and stained for 1 hour in 0.5% Alcian blue solution at pH 1.0, differentiated in 3% acetic acid, and then dehydrated in ethanol and scored for chondrogenesis under the microscope. An absence or reduction in the number of cartilage nodules in stained cultures as compared with control cultures was taken as a measure of suppression of chondrogenesis. The number of cartilage nodules stained in the whole spot, mean number of nodules, and standard deviations were calculated for four replicate cultures per treatment. The median concentration causing a 50% inhibition of chondrogenesis compared with controls (IC50) was calculated by logarithmic curve fitting of the dose-response data.

chimeric RARβ receptor = target: T3, chimeric RARβ receptor (Homo sapiens, UniProt P10826); test: Cationic Liposome Mediated Transfection Assay (ERE-CAT reporter in HeLa cells), RARβ
T3 sequence (P10826 183-417 limits assumed): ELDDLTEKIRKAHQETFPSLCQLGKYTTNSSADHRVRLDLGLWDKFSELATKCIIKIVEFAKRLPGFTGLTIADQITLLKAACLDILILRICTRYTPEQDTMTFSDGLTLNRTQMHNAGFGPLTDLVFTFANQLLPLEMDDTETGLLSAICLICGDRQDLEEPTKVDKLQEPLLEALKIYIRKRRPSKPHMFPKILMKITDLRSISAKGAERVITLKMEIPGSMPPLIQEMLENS

gestating ICR mice = test: in vivo teratology study in gestating ICR mice; design: species or system mouse; conditions: for teratogenicity (in words): conclusion from Table 2
Protocol: The methodology of the study is described as follows: ICR mice (Ace Animals, Boyertown, Pa.) were used. Mature male and virgin female ICR mice were housed in environmentally controlled rooms and acclimatized to a 12 hour light/dark cycle (light cycle 6 A.M. to 6 P.M.) for 2 weeks prior to use. All animals were maintained on Purina Lab Chow and tap water ad libitum. A group of 3-4 females was caged with a single male of proven fertility for 4 hours. Presence of a vaginal plug immediately afterward was regarded as evidence of successful mating, and this day was designated as day 0 of gestation. […] All animals were killed by cervical dislocation under mild ether anesthesia on day 17 of gestation. Upon laparotomy, the fetuses were examined for external malformations and weighed; one-half of each litter was then fixed in 95% ethanol and processed for staining of the skeleton by the rapid, alizarin red-S dye method. These preparations were examined under a dissection microscope to screen for abnormalities in the axial and the appendicular skeleton. The other half of each litter was fixed in Bouin's solution and examined by freehand razor serial sectioning to screen for anomalies of the brain, face, and palate. Differences in dose-related incidence of malformations and resorptions were assessed by computing percentages of affected conceptuses among total implantation sites. The groups were compared statistically by a method based on Student's t-tests of arcs in square root transformed percentages. Values at 0.05 probability level were considered significant. The median effective dose was calculated by logarithmic curve fitting of the dose-response data.

chimeric RARα receptor = target: T4, chimeric RARα receptor (Homo sapiens, UniProt P10276); test: Cationic Liposome Mediated Transfection Assay (ERE-CAT reporter in HeLa cells), RARα
T4 sequence (P10276 183-417 limits assumed): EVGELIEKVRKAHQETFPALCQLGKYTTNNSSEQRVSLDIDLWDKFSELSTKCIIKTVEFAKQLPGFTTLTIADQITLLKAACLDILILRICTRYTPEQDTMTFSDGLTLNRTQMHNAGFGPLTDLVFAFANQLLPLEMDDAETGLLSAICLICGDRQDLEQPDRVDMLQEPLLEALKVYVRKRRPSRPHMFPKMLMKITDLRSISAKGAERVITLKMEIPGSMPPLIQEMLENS

[3] = Table 3, cultures terminated 96 hours after plating, read-out: IC50, 50% inhibition of chondrogenesis
[4] = single oral dose 1 mg/kg on day 11 of gestation
[5] = single oral dose 10 mg/kg on day 11 of gestation
[6] = single oral dose 100 mg/kg on day 11 of gestation
[7] = single oral dose 0.01 mg/kg on day 11 of gestation
[8] = single oral dose 0.1 mg/kg on day 11 of gestation

## C/C(=C\c1cc(C(=O)O)cs1)c1cc2c(cc1C)C(C)(C)CCC2(C)C [Compound 1, 2-[(E)-2-(5,6,7,8-Tetrahydro-3,5,5,8,8-pentamethylnaphthalen-2-yl)propen-1-yl]thiophene-4-carboxylic Acid]
[1]
  presence in maternal plasma and embryo (in words): present in substantial concentration in the maternal plasma and in the embryo
Chimeric RXRα receptor
  pEC50: 7.17
Chimeric RARγ receptor
  pEC50: 5.97
Human sebocyte cultures
  inhibition of 3H-thymidine incorporation in sebocytes (in words): effective retinoid
[2]; [3]
  IC50: 19 µg/mL (≈ 51.6 µM)
[2]; text b179, read-out: IC50, inhibition of chondrogenesis
  IC50: 19 µg/mL (≈ 51.6 µM)
[2]; ratio of IC50 values, versus Compound 7
  times less teratogenic than Compound 7 in the chondrogenesis assay: approximately 6.3×10^4 times
Chimeric RARβ receptor
  pEC50: 5.48
Gestating ICR mice; listed as AGN 191701
  teratogenicity (in words): practically not teratogenic; also recorded: very little teratogenic effect
Gestating ICR mice; [4]
  # Litters Normal: 1
  % Cleft Palate: 0%
  % Limb Defects: 0%
  % Resorbed: 18%
Gestating ICR mice; [5]
  # Litters Normal: 3
  % Cleft Palate: 0%
  % Limb Defects: 0%
  % Resorbed: 14%
Gestating ICR mice; [6]
  # Litters Normal: 2
  % Cleft Palate: 19%
  % Limb Defects: 22%
  % Resorbed: 2%

## C/C(=C\C=C\c1occc1C(=O)O)c1cc2c(cc1C)C(C)(C)CCC2(C)C [Compound 2]
Chimeric RXRα receptor
  pEC50: 5.97

## C/C(=C/C=C/c1occc1C(=O)O)c1cc2c(cc1C)C(C)(C)CCC2(C)C [Compound 3]
Chimeric RXRα receptor
  pEC50: 5.88

## C/C(=C\c1ccc(C(=O)O)o1)c1cc2c(cc1C)C(C)(C)CCC2(C)C [Compound 4]
Chimeric RXRα receptor
  pEC50: 6.29
Chimeric RARγ receptor
  pEC50: < 5.00
Chimeric RARβ receptor
  pEC50: < 5.00
Chimeric RARα receptor
  pEC50: < 5.00

## C/C(=C\C=C\C1C[C@H]1C(=O)O)c1cc2c(cc1C)C(C)(C)CCC2(C)C (stereo partly drawn) [Compound 5, Cis-[2-[4-Methyl-4-(3,5,5,8,8,-pentamethyl-5,6,7,8-tetrahydronapthalen)-2-yl]-1E,3E-butadien-1-yl] 1-Cyclopropane Carboxylic Acid]
Chimeric RXRα receptor
  pEC50: 6.86

## C/C(=C\c1ccc(C(=O)O)cc1)c1ccc2c(c1)C(C)(C)CCC2(C)C [Compound 7, reference compound]
Chimeric RXRα receptor
  pEC50: < 5.00
[2]; [3]
  IC50: 0.003 µg/mL (≈ 0.00861 µM)
[2]; text b179, read-out: IC50, inhibition of chondrogenesis (unit inferred)
  IC50: 0.003 µg/mL (≈ 0.00861 µM)
Gestating ICR mice
  teratogenicity (in words): much more teratogenic than Compound 1
Gestating ICR mice; [7]
  # Litters Normal: 2
  % Cleft Palate: 29%
  % Limb Defects: 20%
  % Resorbed: 3%
Gestating ICR mice; [8]
  # Litters Normal: 0
  % Cleft Palate: 100%
  % Limb Defects: 100%
  % Resorbed: 30%
Gestating ICR mice; [4]
  # Litters Normal: 0
  % Resorbed: 100%
Gestating ICR mice; [5]
  # Litters Normal: 0
  % Resorbed: 100%
